Data set [1] is described as follows: phenyl quinone writhing test (analgesic activity). The format is in vivo. From the text:
The compounds were also examined for Analgesic Activity in the conventional phenyl quinone writhing test.

Data set [2] is described as follows: Carrageenin test (anti-inflammatory activity). The note with it: * significantly active. The class given is in vivo. From the text: (§1) The compounds were examined for Anti-Inflammatory Activity in two conventional tests, the Cotton Pellet Granuloma test and the Carrageenin test.
Data set [3] is described as follows: Cotton Pellet Granuloma test (anti-inflammatory activity). The class given is in vivo. The settings on record: * significantly active.
Description: as §1

`Cc1ccc2c(c1)CCc1cc(CC(=O)O)n(C)c1C2=O` [Example 1, 4,5-Dihydro-1,7-dimethyl-10H-10-oxo-benzo[5,6]cyclohepta[1,2-b]pyrrole-2-acetic acid] had an ED50 in data set [1] of 5.1 mg/kg. Also, the “Carrageenin % Inhibition” value in data set [2] (5 mg/kg) turned out to be 21%; in data set [2] (25 mg/kg), 44%. Besides, in data set [3] (25 mg/kg), the “Cotton Pellet % Inhibition” value came to 34%. In “in vivo”, this compound displayed a TD50 of 95 mg/kg.

The compound `Cn1c(CC(=O)O)cc2c1C(=O)c1ccccc1CC2` [Example 2, 4,5-Dihydro-10H-1-methyl-10-oxobenzo[5,6]-cyclohepta[1,2-b]pyrrole-2-aceticacid] displayed an ED50 in data set [1] of 2.4 mg/kg. Also, the figures for the “Carrageenin % Inhibition” value in data set [2] (15 mg/kg) and in data set [2] (45 mg/kg) were 25% and 30%, respectively. Besides, in data set [3] (10 mg/kg), the “Cotton Pellet % Inhibition” value is 28%.

For the compound `CC(=O)CCc1cc2c(n1C)C(=O)c1ccccc1CC2` [Example 4, 4-(4,5-Dihydro-10H-1-methyl-10-oxo-benzo[5,6]cyclohepta[1,2-b]-2-pyrryl)butan-2-one], the entries for the “Carrageenin % Inhibition” value in data set [2] (15 mg/kg) and in data set [2] (45 mg/kg) were 17% and 20%, respectively.

Turning to `CC(O)CCc1cc2c(n1C)C(=O)c1ccccc1CC2` (centres unmarked) [Example 5, 4-(4,5-Dihydro-10H-1-methyl-10-oxo-benzo[5,6]cyclohepta[1,2-b]-2-pyrryl)butan-2-ol], in data set [2] (45 mg/kg), the “Carrageenin % Inhibition” value is 25%.

In the case of `CC(=O)OC(C)CCc1cc2c(n1C)C(=O)c1ccccc1CC2` (centres unmarked) [Example 6, 2-Acetoxy-4-(4,5-dihydro-10H-1-methyl-10-oxo-benzo[5,6]cyclohept[1,2-b]-2-pyrryl)butane], the “Carrageenin % Inhibition” value worked out at 17% in data set [2] (15 mg/kg) and 19% in data set [2] (45 mg/kg).

For `Cn1c(CC(=O)O)cc2c1C(=O)c1ccc(Cl)cc1CC2` [Example 7, 7-Chloro-4,5-dihydro-10H-1-methyl-10-oxobenzo[5,6]cyclohepta[1,2-b]pyrrole-2-acetic acid], the “Carrageenin % Inhibition” value in data set [2] (25 mg/kg) is 25%. Besides, the “Cotton Pellet % Inhibition” value in data set [3] (25 mg/kg) amounted to 49%.

In the case of `Cn1c(CC(=O)O)cc2c1C(=O)c1ccc(F)cc1CC2` [Example 8, 4,5-Dihydro-7-fluoro-10H-1-methyl-10-oxobenzo[5,6]cyclohepta[1,2-b]pyrrole-2-acetic acid], the “Cotton Pellet % Inhibition” value in data set [3] (10 mg/kg) was 31%.

Values taken from patent publication US4444981A, “10 Oxo-4,5-dihydro-10H-benzo 5,6 cycloheph[1,2-B]pyrryls” (Beecham Group Limited, priority 1979, dated 1984).
